We go through eight compounds from patent US20250100998A1, “PARP7 INHIBITORS” (Gilead Sciences, Inc., priority 2023, published 2025).

For this experiment, the system named is STAT1 (phosphorylated at Tyr701) in NCI-H1373 cells. Nature of the experiment: Phospho-STAT1 (Tyr701) LANCE Ultra TR-FRET detection assay. The format is cell-based. The note with it: Homo sapiens, NCI-H1373, 48 h, induction of pSTAT1 in NCI-H1373 cells, 48 hours incubation; normalized to 10 uM positive control and DMSO; 4-parameter fit; read-out: NH1373 pSTAT1 EC50. A digest of the protocol: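 Endogenous pSTAT1 (Tyr701) induction measured in NCI-H1373 cells seeded onto compound and incubated 48 h at 37 °C. Lysates assayed by LANCE Ultra sandwich TR-FRET; 665/620 nm ratio normalized to 10 uM reference […] (positive) and DMSO (negative). EC50 from 4-parameter fit.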
In general terms: In TR-FRET formats the signal depends on donor and acceptor labels being close together.
By EC50 is commonly meant the midpoint of the concentration-response curve. Regarding `CC(C)(O)c1cnc(-c2cc3ccn(C[C@@H]4CCC[C@H](Oc5cn[nH]c(=O)c5C(F)(F)F)C4)c(=O)c3c(F)c2F)nc1` [Example 55, 7,8-difluoro-6-(5-(2-hydroxypropan-2-yl)pyrimidin-2-yl)-2-(((1R,3S)-3-((6-oxo-5-(trifluoromethyl)-1,6-dihydropyridazin-4-yl)oxy)cyclohexyl)methyl)isoquinolin-1(2H)-one], the 50% effective concentration (EC50) came out at 1.56 nM.
`O=c1[nH]ncc(N[C@@H]2C[C@H](Cn3ccc4cc(-c5ncc(C(F)(F)F)cn5)c(F)cc4c3=O)CC[C@@H]2O)c1C(F)(F)F` (racemic) [Example 68, 7-fluoro-2-(((rac-1R,3R,4S)-4-hydroxy-3-((6-oxo-5-(trifluoromethyl)-1,6-dihydropyridazin-4-yl)amino)cyclohexyl)methyl)-6-(5-(trifluoromethyl)pyrimidin-2-yl)isoquinolin-1(2H)-one]: the concentration giving a half-maximal response (EC50) worked out at 65.1 nM.
Next, `CS(=O)(=O)c1cnc(-c2cc3c(F)cn(C[C@@H]4CCC[C@H](Nc5cn[nH]c(=O)c5C(F)(F)F)C4)c(=O)c3cc2F)nc1` [Example 40, 4,7-difluoro-6-(5-methylsulfonylpyrimidin-2-yl)-2-[[(1R,3S)-3-[[6-oxo-5-(trifluoromethyl)-1H-pyridazin-4-yl]amino]cyclohexyl]methyl]isoquinolin-1-one]: 16.3 nM; `O=c1[nH]ncc(N[C@H]2C[C@@H](Cn3ccc4cc(-c5ncc(C(F)(F)F)cn5)c(F)cc4c3=O)CC(F)(F)C2)c1C(F)(F)F` (single isomer, unassigned) [Example 67]: 100 nM; `CC(C)(O)c1cnc(-c2cc3c(cc2F)C(=O)N(C[C@@H]2CCC[C@H](Nc4cn[nH]c(=O)c4C(F)(F)F)C2)CC3)nc1` [Example 73, 7-fluoro-6-(5-(2-hydroxypropan-2-yl)pyrimidin-2-yl)-2-(((1R,3S)-3-((6-oxo-5-(trifluoromethyl)-1,6-dihydropyridazin-4-yl)amino)cyclohexyl)methyl)-3,4-dihydroisoquinolin-1(2H)-one]: 7.8 nM.
With `O=c1[nH]ncc(O[C@H]2CCC[C@@H](Cn3cc(F)c4cc(-c5ncc(C(F)F)cn5)c(F)c(F)c4c3=O)C2)c1C(F)(F)F` [Example 52, 6-(5-(difluoromethyl)pyrimidin-2-yl)-4,7,8-trifluoro-2-(((1R,3S)-3-((6-oxo-5-(trifluoromethyl)-1,6-dihydropyridazin-4-yl)oxy)cyclohexyl)methyl)isoquinolin-1(2H)-one], the EC50 was 1.22 nM.
For `O=c1[nH]ncc(N[C@H]2CCC[C@@H](Cn3ccc4cc(-c5ncc(OC(F)F)cn5)c(F)cc4c3=O)C2)c1C(F)(F)F` [Example 5, 6-(5-(difluoromethoxy)pyrimidin-2-yl)-7-fluoro-2-(((1R,3S)-3-((6-oxo-5-(trifluoromethyl)-1,6-dihydropyridazin-4-yl)amino)cyclohexyl)methyl)isoquinolin-1(2H)-one] the value was 4.74 nM; for `O=c1[nH]ncc(O[C@H]2CCC[C@@H](Cn3cc(F)c4cc(-c5ncc(OC(F)F)cn5)c(F)c(F)c4c3=O)C2)c1C(F)(F)F` [Example 50, 6-(5-(difluoromethoxy)pyrimidin-2-yl)-4,7,8-trifluoro-2-(((1R,3S)-3-((6-oxo-5-(trifluoromethyl)-1,6-dihydropyridazin-4-yl)oxy)cyclohexyl)methyl)isoquinolin-1(2H)-one], 1.29 nM.
